According to patent publication US5939437A, “CCK and gastrin receptor ligands” (James Black Foundation Limited, priority 1994, dated 1999):

Assays:
CCKB = molecular target: T1, CCKB (Mus musculus, UniProt P56481); assay: radioligand binding assay at the CCKB (CCK8 [sic]) receptor in mouse cortical membranes; details: [125I]-CCK8S 200 pM, 150 min at 21±3° C.; for Ki: read-out: CCKB pKi (converted)
T1 construct: The cortex was dissected, weighed and homogenised in 40 ml ice-cold buffer; from tissue; host or cells: cerebral cortex membranes of male CD1 mice (Charles River)
T1 sequence (P56481 1-453): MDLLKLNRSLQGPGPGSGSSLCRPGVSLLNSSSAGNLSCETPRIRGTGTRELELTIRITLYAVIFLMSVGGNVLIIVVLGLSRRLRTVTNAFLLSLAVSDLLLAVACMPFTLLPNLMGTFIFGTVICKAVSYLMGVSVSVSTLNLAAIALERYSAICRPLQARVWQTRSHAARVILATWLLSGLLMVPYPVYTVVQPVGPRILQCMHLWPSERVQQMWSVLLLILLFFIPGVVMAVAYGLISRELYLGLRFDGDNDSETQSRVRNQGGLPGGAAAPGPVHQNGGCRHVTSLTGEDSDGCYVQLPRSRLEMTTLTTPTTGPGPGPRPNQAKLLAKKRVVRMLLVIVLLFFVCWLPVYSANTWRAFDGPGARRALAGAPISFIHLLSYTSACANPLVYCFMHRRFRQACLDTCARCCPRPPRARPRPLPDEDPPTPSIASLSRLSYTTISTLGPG
Protocol: The compounds of the examples were tested for binding at the CCK8 receptor in mouse cortical membranes by means of a radioligand binding assay. The procedure was as follows: The whole brains from male mice (CD1 22-25 g; Charles River) were removed and placed in ice-cold buffer (pH7.2@21±3° C.) of the following composition (mM); 10 HEPES, 130 NaCl, 4.7 KCl, 5 MgCl2, 1 EDTA and containing 0.25 g.1^-1 bacitracin. The cortex was dissected, weighed and homogenised in 40 ml ice-cold buffer using a Teflon-in-glass homogeniser. The homogenate was centrifuged at 39,800 g for 20 min at 4° C., the supernatant discarded and the pellet resuspended by homogenisation in fresh buffer. The homogenate was recentrifuged (39,800 g; 20 min@4° C.) and the final pellet was resuspended in HEPES buffer to give a tissue concentration of 2 mg.ml^-1 (original wet weight). The membranes ([…]) were incubated for 150 min at 21±3° C. in a final volume of 0.5 ml with HEPES buffer containing [^25 I]-CCK8S (0.05 ml; 200 pM NEN 2200 Ci.mmol^-1) and competing compound. Total and non-specific binding of [^125 I]-CCK8S were defined using 0.05 ml of buffer and 0.05 ml of […] L-365,260, respectively. The assay was terminated by rapid filtration through pre-soaked Whatman GF/B 35 filters using a Brandell Cell harvester. The filters were washed (3×3 ml) with ice-cold 5 mM Tris-HCl (pH7.4@4° C.) and bound radioactivity determined by counting (1 min.) in a gamma-counter.

CCKA = molecular target: T2, CCKA (Cavia porcellus, UniProt Q63931); assay: CCKA binding assay (guinea-pig pancreas membranes); details: [125I]-CCK8(S) 200 pM, 0.375 μM PD134,308 present, 150 minutes at 21±3° C.; for Ki: read-out: CCKA pKi (converted)
T2 construct: The pancreatata were homogenised in 40 ml ice-cold HEPES buffer; from tissue; host or cells: pancreas membranes of male Dunkin Hartley guinea-pigs
T2 sequence (Q63931 1-430): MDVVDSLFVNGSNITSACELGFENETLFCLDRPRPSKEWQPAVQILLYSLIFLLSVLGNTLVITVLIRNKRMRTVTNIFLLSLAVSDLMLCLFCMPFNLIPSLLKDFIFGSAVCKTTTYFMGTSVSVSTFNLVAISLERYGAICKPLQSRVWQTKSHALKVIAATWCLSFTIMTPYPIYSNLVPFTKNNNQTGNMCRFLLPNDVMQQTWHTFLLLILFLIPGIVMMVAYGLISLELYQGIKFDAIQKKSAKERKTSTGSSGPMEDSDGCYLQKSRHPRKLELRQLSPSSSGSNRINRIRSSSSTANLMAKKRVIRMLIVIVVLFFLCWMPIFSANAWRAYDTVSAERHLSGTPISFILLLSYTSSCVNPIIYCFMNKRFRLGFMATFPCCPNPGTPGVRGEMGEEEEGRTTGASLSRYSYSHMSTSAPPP
Protocol: The compounds of the examples were also tested in a CCKA binding assay as follows:
The pancreatata were removed from male guinea-pigs (200-300 g; Dunkin Hartley) and placed in ice-cold HEPES buffer (pH 7.2@21 ±3° C.). The pancreatata were homogenised in 40 ml ice-cold HEPES buffer using a polytron (Brinkman, PT10, setting 10) 4×1 second. The homogenate was centrifuged at 39,800 g for 15 min at 4° C. The supernatant was discarded and the pellet re-suspended using a Teflon-in-glass homogeniser in 20 volumes of fresh buffer and re-centrifuged as above. The final pellet was re-suspended using a Teflon-in-glass homogeniser to a tissue concentration of 1 mg.ml^-1 (original wet weight), and filtered through 500 μm pore-size Nytex mesh.
The membranes (400 μl; containing 0.375 μM PD134,308) are incubated for 150 minutes at 21±3° C. in a final volume of 0.5 ml with HEPES buffer containing [^125 I]-CCK8 (S) (50 μl; 200 pM) and competing compound. Total and non-specific binding of [^125 I]-CCK^8 (S) are defined using 50 μl of buffer and 50 μl of 100 nM L-364,718respectively. The assay is terminated by rapid filtration through pre-soaked Whatman GF/B filters using a Brandell Cell Harvester. The filters were washed (3×3 ml) with ice-cold 50 mM Tris HCl (pH 7.4 at 4° C. and bound radioactivity is determined by counting (1 min) in a gamma counter.

Gastrin = molecular target: T3, Gastrin (Rattus norvegicus, UniProt P30553); assay: gastrin antagonist activity in an immature rat stomach assay (pentagastrin-stimulated acid secretion, isolated stomach); details: cumulative pentagastrin dose-response curves, 60 min after drug; for Kb: read-out: Gastrin pKB (converted)
T3 construct: The stomach was excised and flushed with ca. 1 ml unbuffered physiological saline solution; from tissue; host or cells: isolated whole stomach of immature rats (33-50 g, ca. 21 days old)
T3 sequence (P30553 1-452): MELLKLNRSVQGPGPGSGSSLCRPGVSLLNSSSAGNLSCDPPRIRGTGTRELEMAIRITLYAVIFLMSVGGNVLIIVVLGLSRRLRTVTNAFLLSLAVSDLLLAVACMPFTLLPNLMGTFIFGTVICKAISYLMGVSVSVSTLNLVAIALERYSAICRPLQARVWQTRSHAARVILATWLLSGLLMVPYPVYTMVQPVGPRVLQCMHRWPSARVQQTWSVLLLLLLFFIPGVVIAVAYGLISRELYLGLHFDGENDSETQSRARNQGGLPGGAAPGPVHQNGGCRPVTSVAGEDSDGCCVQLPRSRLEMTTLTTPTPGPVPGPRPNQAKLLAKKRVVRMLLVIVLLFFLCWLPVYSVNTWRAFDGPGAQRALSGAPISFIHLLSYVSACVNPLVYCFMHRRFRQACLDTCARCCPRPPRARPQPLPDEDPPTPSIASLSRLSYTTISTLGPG
Protocol: The compounds of the examples were also tested for gastrin antagonist activity in an immature rat stomach assay. The procedure was follows:
The oesophagus of immature rats (33-50 g, ca. 21 days old) was ligated at the level of the cardiac sphincter and the duodenal sphincter was cannulated. The stomach was excised and flushed with ca. 1 ml unbuffered physiological saline solution. The fundus was punctured and cannulated. A further 4-5 ml of unbuffered solution was flushed through the stomach to ensure the preparation was not leaking. The stomach was lowered into a jacketed organ bath containing 40 ml of buffered solution containing 3×10^-8 M5methylfurmethide, maintained at 37° and gassed vigorously with 95% O2 /5% CO2. The stomach was continuously perfused at a rate of 1 ml min^-1 with unbuffered solution gassed with 100% O2 with the perfusate passing over an internally referenced pH-electrode fixed 12 cm above the stomach.
After 120 min of stabilisation the drugs were added directly to the serosal solution in the organ bath and after a further 60 min cumulative pentagastrin dose-response curves were started. Changes in acid secretion were monitored and the curves analysed according to Black et. al., Br. J. Pharmacol., 1985, 86, 581.

Compound | Kb (Gastrin) [nM] | Ki (CCKB) [nM] | other results
O=C(O)c1cc(NC(=O)[C@H](Cc2ccccc2)NC(=O)c2ccccc2C(=O)NCc2cccc3ccccc23)cc(C(=O)O)c1 [Example 5, (1R-(3,5-dicarboxyphenylaminocarbonyl)-2-phenylethylaminocarbonyl)-2-(1-naphthalenemethylaminocarbonyl)-benzene] |  |  | CCKB pKi (CCKB): 6.3; CCKA pKi (CCKA): 7.0
O=C(O)c1cc(NC(=O)[C@H](Cc2ccccc2)N2Cc3cccc(C(=O)NCC45CC6CC(CC(C6)C4)C5)c3C2=O)cc(C(=O)O)c1 [Example 27, 7-(1-adamantanemethylaminocarbonyl)-2-(1S-(3,5-dicarboxyphenylaminocarbonyl)-2-phenylethyl) indol-1-one] |  | 126 | Ki (CCKA): 3160 nM
COc1ccc(C(=O)NCC23CC4CC(CC(C4)C2)C3)c(C(=O)N[C@@H](Cc2ccccc2F)C(=O)Nc2cc(C(=O)O)cc(C(=O)O)c2)c1 [Example 29, 1-(1S-(3,5-dicarboxyphenylamino-carbonyl)-2-(2-fluorophenyl)ethylaminocarbonyl)-2-(1-adamantane-methylaminocarbonyl)-5-methoxybenzene] | 1580 | 15.8 | 
COc1ccc(C(=O)N[C@@H](Cc2ccccc2F)C(=O)Nc2cc(C(=O)O)cc(C(=O)O)c2)c(C(=O)NCC23CC4CC(CC(C4)C2)C3)c1 [Example 28, 1-(1S-(3,5-dicarboxyphenylamino-carbonyl)-2-(2-fluorophenyl)ethylaminocarbonyl)-2-(1-adamantane-methylaminocarbonyl)-4-methoxybenzene] | 12.6 | 15.8 | 
O=C(O)c1cc(NC(=O)[C@H](Cc2ccccc2)NC(=O)c2c(F)ccc(F)c2C(=O)NCC23CC4CC(CC(C4)C2)C3)cc(C(=O)O)c1 [Example 22, 1-(1S-(3,5-dicarboxyphenylamino-carbonyl)-2-phenylethylaminocarbonyl)-2-(1-adamantanemethyl-aminocarbonyl)-3,6-difluorobenzene] |  |  | Gastrin pKB (Gastrin): 7.5; CCKB pKi (CCKB): 7.3

Continued, in another order:

Kb (Gastrin) [nM] | Ki (CCKB) [nM] | Compound | other results
5.01 | 7.94 | CNc1ccc(C(=O)N[C@@H](Cc2ccccc2)C(=O)Nc2cc(C(=O)O)cc(C(=O)O)c2)c(C(=O)NCC23CC4CC(CC(C4)C2)C3)c1 [Example 24, 1-(1S-(3,5-dicarboxyphenylamino-carbonyl)-2-phenylethylaminocarbonyl)-2-(1-adamantanemethyl-aminocarbonyl)-4-methylaminobenzene] | 
31.6 | 25.1 | COc1ccc(C(=O)N[C@@H](Cc2ccccc2)C(=O)Nc2cc(C(=O)O)cc(C(=O)O)c2)c(C(=O)NCC23CC4CC(CC(C4)C2)C3)c1 [Example 18, 1-(1S-(3,5-dicarboxyphenylamino-carbonyl)-2-phenylethylaminocarbonyl)-2-(1-adamantanemethyl-aminocarbonyl)-4-methoxybenzene] | 
2.51 | 1.58 | CN(C)c1ccc(C(=O)N[C@@H](Cc2ccccc2)C(=O)Nc2cc(C(=O)O)cc(C(=O)O)c2)c(C(=O)NCC23CC4CC(CC(C4)C2)C3)c1 [Example 25, 1-(1S-(3,5-dicarboxyphenylamino-carbonyl)-2-phenylethylaminocarbonyl)-2-(l-adamantanemethyl-aminocarbonyl)-4-dimethylaminobenzene] | 
 | 251 | O=C(Cc1ccccc1C(=O)N[C@@H](Cc1ccccc1)C(=O)Nc1cc(C(=O)O)cc(C(=O)O)c1)NCC12CC3CC(CC(C3)C1)C2 [Example 9, (1S-(3,5-dicarboxyphenylaminocarbonyl)-2-phenylethylaminocarbonyl)-2-(1-adamantanemethylaminocarbonyl-methyl)benzene] | Ki (CCKA): 3160 nM
126 | 316 | O=C(O)c1cc(NC(=O)[C@H](Cc2ccccc2)NC(=O)c2cc(O)ccc2C(=O)NCC23CC4CC(CC(C4)C2)C3)cc(C(=O)O)c1 [Example 23, 1-(1S-(3,5-dicarboxyphenylamino-carbonyl)-2-phenylethylaminocarbonyl)-2-(1-adamantanemethylamino-carbonyl)-5-hydroxybenzene] | 
 | 158 | O=C(Cc1ccccc1C(=O)NCC12CC3CC(CC(C3)C1)C2)N[C@@H](Cc1ccccc1)C(=O)Nc1cc(C(=O)O)cc(C(=O)O)c1 [Example 8, (1S-(3,5-dicarboxyphenylaminocarbonyl)-2-phenylethylaminocarbonylmethyl)-2-(1-adamantanemethylamino-carbonyl)benzene] | Ki (CCKA): 3160 nM
